≈ marks a conversion by molar mass, not a printed value.
What was measured:
K562 [1] = test: Antiproliferative activity against human K562 cells assessed as reduction in cell viability incubated for 48 hrs by CCK-8 assay; format: functional, cell-based; conditions: K562, 48 h
MIA PaCa-2 = test: Cytotoxicity against human MIA PaCa-2 cells assessed as reduction in cell viability incubated for 48 hrs by MTS assay; format: functional, cell-based; conditions: MIA PaCa-2, time 48 hrs
MCF7 [2] = test: Antiproliferative activity against human MCF7 cells assessed as inhibition of cell growth incubated for 48 hrs; format: functional, cell-based; conditions: MCF7, 48 h, pooled result: one value given for 9 cell lines, strains, targets or settings
DU-145 = test: Cytotoxicity against human DU-145 cells assessed as reduction in cell viability incubated for 48 hrs by MTS assay; format: functional, cell-based; conditions: DU-145, time 48 hrs
BT-474 = test: Cytotoxicity against human BT-474 cells assessed as reduction in cell viability incubated for 48 hrs by MTS assay; format: functional, cell-based; conditions: BT-474, time 48 hrs
JIMT-1 = test: Cytotoxicity against human JIMT-1 cells assessed as reduction in cell viability incubated for 48 hrs by MTS assay; format: functional, cell-based; conditions: JIMT-1, time 48 hrs
NCI-H292 = test: Cytotoxicity against human NCI-H292 cells assessed as reduction in cell viability incubated for 4 days by WST-1 assay; format: functional, cell-based; conditions: NCI-H292, 96 h
Jurkat = test: Inhibition of cell growth in human Jurkat cells at 25 ug/ml; format: functional
L1210 = test: Growth inhibition of mouse L1210 cells incubated for 72 hrs by sulforhodamine B staining assay; format: functional
[3] = Growth inhibition of mouse Lewis lung carcinoma cell line incubated for 72 hrs by sulforhodamine B staining assay; format: functional
MCF7 [4] = test: Growth inhibition of human MCF7 cells incubated for 72 hrs by sulforhodamine B staining assay; format: functional
NCI/ADR-RES = test: Growth inhibition of human multi-drug resistant MCF7/Adr cells incubated for 72 hrs by sulforhodamine B staining assay; format: functional
HeLa S3 [5] = test: Cytotoxicity against human HeLa S3 cells assessed as inhibition of cell proliferation incubated for 72 hrs by MTT assay; format: functional, cell-based; conditions: HeLa S3, 72 h
[6] = target: Sarcoplasmic/endoplasmic reticulum calcium ATPase 1 (Oryctolagus cuniculus, UniProt P04191); test: Inhibition of SERCA1a in rabbit Sarcoplasmic reticulum assessed as inhibition constant in presence of [gamma-32P]ATP and calcium ionophore A23187 by coupled enzyme assay; format: subcellular
HeLa = test: Cytotoxicity against human HeLa cells assessed as inhibition of cell growth incubated for 24 hrs by MTT assay; format: functional, cell-based
Ca-Ski = test: Cytotoxicity against human Ca-Ski cells assessed as inhibition of cell growth incubated for 24 hrs by MTT assay; format: functional, cell-based
KB = test: Cytotoxicity against human KB cells assessed as cell growth inhibition incubated for 24 hrs by MTT assay; format: functional, cell-based
A549 = test: Cytotoxicity against human A549 cells assessed as cell growth inhibition incubated for 24 hrs by MTT assay; format: functional, cell-based; conditions: A549, 24 h
MDA-MB-231 [7] = test: Cytotoxicity against human MDA-MB-231 cells assessed as cell growth inhibition incubated for 24 hrs by MTT assay; format: functional, cell-based; conditions: MDA-MB-231, 24 h
K562 [8] = test: Cytotoxicity against human K562 cells assessed as cell growth inhibition incubated for 24 hrs by MTT assay; format: functional, cell-based; conditions: K562, 24 h
Col2 = test: Cytotoxicity against human Col2 cells assessed as cell growth inhibition incubated for 24 hrs by MTT assay; format: functional, cell-based; conditions: Col2, 24 h
HeLa S3 [9] = test: Cytotoxicity against human HeLa S3 cells assessed as cell growth inhibition incubated for 48 hrs by MTT assay; format: functional, cell-based; conditions: HeLa S3, 48 h
HEp-2 = test: Cytotoxicity against human HEp-2 cells assessed as cell growth inhibition by measuring effective dose; format: functional; conditions: read-out: ED50 (the source's name)
MDA-MB-231 [10] = test: Inhibition of cell growth in human MDA-MB-231 cells at 6 ug/ml incubated for 96 hrs; format: functional
MCF7 [11] = test: Inhibition of cell growth in human MCF7 cells at 6 ug/ml incubated for 96 hrs; format: functional

Chain of Sarcoplasmic/endoplasmic reticulum calcium ATPase 1 (P04191 whole entry): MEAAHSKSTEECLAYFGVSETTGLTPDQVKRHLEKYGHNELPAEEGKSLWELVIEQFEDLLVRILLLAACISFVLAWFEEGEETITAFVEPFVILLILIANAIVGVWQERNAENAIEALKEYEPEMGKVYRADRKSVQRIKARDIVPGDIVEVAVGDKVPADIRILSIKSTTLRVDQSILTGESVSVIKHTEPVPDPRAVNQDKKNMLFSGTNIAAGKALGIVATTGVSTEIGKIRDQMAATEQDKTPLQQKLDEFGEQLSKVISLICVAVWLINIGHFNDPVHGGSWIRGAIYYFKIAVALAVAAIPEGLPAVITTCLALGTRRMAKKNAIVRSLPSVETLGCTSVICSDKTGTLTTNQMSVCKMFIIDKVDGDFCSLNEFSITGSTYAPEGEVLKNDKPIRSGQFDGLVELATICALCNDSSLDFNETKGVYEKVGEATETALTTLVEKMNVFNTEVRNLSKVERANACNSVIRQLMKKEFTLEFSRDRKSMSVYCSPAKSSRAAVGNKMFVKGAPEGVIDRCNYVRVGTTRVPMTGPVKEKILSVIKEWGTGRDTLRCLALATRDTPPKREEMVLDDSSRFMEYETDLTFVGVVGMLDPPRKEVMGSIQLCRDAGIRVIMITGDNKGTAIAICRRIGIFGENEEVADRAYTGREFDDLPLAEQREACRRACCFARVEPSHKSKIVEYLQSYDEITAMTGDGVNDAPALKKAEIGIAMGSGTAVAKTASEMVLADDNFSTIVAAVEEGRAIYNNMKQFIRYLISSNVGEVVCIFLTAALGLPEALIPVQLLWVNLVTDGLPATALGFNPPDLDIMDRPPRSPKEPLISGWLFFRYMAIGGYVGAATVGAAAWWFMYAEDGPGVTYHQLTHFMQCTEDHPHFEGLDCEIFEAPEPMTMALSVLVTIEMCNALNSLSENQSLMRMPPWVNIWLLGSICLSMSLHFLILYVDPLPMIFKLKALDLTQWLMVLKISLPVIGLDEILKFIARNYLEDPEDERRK

With `CCCCCCCCCCN1C[C@@H](O)[C@@H](O)C1` as the compound, how does the IC50 (K562 [1]) read?
Its IC50 is 17.7 µM.

What does the source list for `CCCCCCCCCCCCCCCCOC[C@H](CO[C@@H]1O[C@H](CO)[C@@H](O)[C@H](O)[C@H]1N)OC`?
CC50 (MIA PaCa-2): 9 µM; IC50 (MCF7 [2]): 4.1 µM; CC50 (DU-145): 10 µM; CC50 (BT-474): 8 µM; CC50 (JIMT-1): 9 µM

Which EC50 (NCI-H292) does the source give for `COC[C@@H](C[C@H]1O[C@@](O)([C@H](O)[C@@H]2C[C@H](OC)[C@@H](O)CC/C=C(C)/C=C/[C@@H](O[C@@H]3O[C@@H](C)[C@H](OC)[C@@H](O)[C@@H]3O)[C@H](C)/C=C(C)/C=C(C)/C=C(/C)C(=O)O2)[C@H](C)[C@@H](O)[C@H]1C)O[C@H]1C[C@](C)(O)[C@@H](O[C@H]2C[C@@H](OC)[C@H](O)[C@@H](C)O2)[C@H](C)O1` here?
The EC50 was 0.15 µM.

With `CCCCOC(=O)CCCCCCC/C=C/CCCCCC[C@H](C)O[C@@H]1O[C@H](COC(C)=O)[C@@H](O)[C@H](O)[C@H]1O[C@@H]1O[C@H](COC(C)=O)[C@@H](O)[C@H](O)[C@H]1O` as the compound, how does the inhibition at 25 µg/mL (Jurkat) read?
The inhibition at 25 µg/mL was 99.7%.

Which GI50 (L1210) does the source give for `CCCCCCCCCCCCCCCCOC[C@H](CO[C@H]1C[C@@H](O)[C@H](O)[C@@H](CO)O1)OC` here?
Its GI50 is 7.09 µM.

And the GI50 [3]?
Its GI50 is 11.1 µM.

What about the GI50 (MCF7 [4]) of the same compound?
The GI50 was 6.93 µM.

And the GI50 (NCI/ADR-RES)?
The GI50 was 12.8 µM.

Which IC50 (HeLa S3 [5]) does the source give for `C/C=C/C/C(C)=C\[C@H]1C[C@H]2C=C[C@H](C[C@H](C)/C=C(\C)[C@@H](OC)C/C=C/[C@@H](O[C@@H]3O[C@H](CO)[C@@H](O)[C@H](OC)[C@H]3O)CC(=O)O1)OO2` here?
The IC50 was > 10 µM.

And the Ki [6]?
Its Ki is 0.018 µM.

Which results are given for `CC(=O)OC[C@H]1O[C@H]2O[C@@H](C)CCCCCC/C=C/CCCCCC(=O)O[C@@H]3[C@@H](O)[C@H](O[C@@H]2[C@@H](O)[C@@H]1O)O[C@H](COC(C)=O)[C@H]3O`?
IC50 (HeLa): 62.9 µg/mL (≈ 95.3 µM); IC50 (Ca-Ski): 82.2 µg/mL (≈ 124 µM)

For `CCCCCCCCO[C@@H]1O[C@@H](C)[C@H](OC(=O)CCCCC)[C@@H](O[C@@H]2O[C@@H](C)[C@H](OC(C)=O)[C@@H](O[C@@H]3O[C@@H](C)[C@H](OC(C)=O)[C@@H](O[C@@H]4O[C@@H](C)[C@H](O)[C@@H](O)[C@H]4O)[C@H]3OC(C)=O)[C@H]2OC(C)=O)[C@H]1O`, which IC50 (KB) is on record?
Its IC50 is 0.7 µM.

And the IC50 (A549)?
The IC50 was 0.7 µM.

What about the IC50 (MDA-MB-231 [7]) of the same compound?
The IC50 was 0.7 µM.

What about the IC50 (K562 [8]) of the same compound?
The IC50 was 0.7 µM.

And the IC50 (Col2)?
The IC50 was 0.7 µM.

For `C/C=C\C/C=C\C/C=C\C/C=C\C/C=C\CCCC(=O)OCC(CO[C@H]1O[C@H](CS(=O)(=O)O)[C@@H](O)[C@H](O)[C@H]1O)OC(=O)CCCCCCCCCCCCCCC` (stereo partly specified), which IC50 (HeLa S3 [9]) is on record?
Its IC50 is 80 µM.

With `CCCCCCCCCCCC(=O)O[C@@H]1[C@@H](O)[C@@H](OC(=O)/C=C/c2ccccc2)[C@H](O[C@@H]2[C@@H](O)[C@@H](OC(=O)[C@@H](C)CC)[C@H](O[C@@H]3[C@@H](O)[C@H]4OC(=O)CCCCCCCCC[C@@H](CCCCC)O[C@@H]5O[C@H](CO)[C@@H](O)[C@H](O)[C@H]5O[C@@H]4O[C@H]3C)O[C@H]2C)O[C@H]1C` as the compound, how does the EC50 (HEp-2) read?
The EC50 was 3.5 µg/mL (≈ 2.8 µM).

For `CC/C=C\C/C=C\C/C=C\CCCCCCCC(=O)OC[C@@H](CO[C@@H]1O[C@H](CO)[C@H](O)[C@H](O)[C@H]1O)OC(=O)CCCCCCC/C=C\C/C=C\C/C=C\CC`, which inhibition at 6 µg/mL (MDA-MB-231 [10]) is on record?
The inhibition at 6 µg/mL was 90%.

And the inhibition at 6 µg/mL (MCF7 [11])?
Its inhibition at 6 µg/mL is 90%.

With `CCOC(=O)CCCCCCC/C=C/CCCCCC[C@H](C)O[C@@H]1O[C@H](COC(C)=O)[C@@H](O)[C@H](O)[C@H]1O[C@@H]1O[C@H](COC(C)=O)[C@@H](O)[C@H](O)[C@H]1O` as the compound, how does the inhibition at 25 µg/mL (Jurkat) read?
Its inhibition at 25 µg/mL is 90%.

Reference: ChEMBL document CHEMBL5260828, “Amphiphilic glycoconjugates as potential anti-cancer chemotherapeutics” (Eur J Med Chem, 2018)
